Reference: ChEMBL document CHEMBL1129304, “11-Ketotigogenin cellobioside (pamaqueside): a potent cholesterol absorption inhibitor in the hamster” (J Med Chem, 1996)

What was measured:
Type in all cases: ADME, organism-based, Canis lupus familiaris
[1] = Pharmacokinetic parameter clearance was determined in fed Beagle dogs after iv administration of 1.5 mg/kg; design: dose 1.5 mg/kg, route intravenous; conditions: dog, in vivo
Canis familiaris = assay: Pharmacokinetic parameter AUC has been determined in fed Beagle dogs at a dose of 500 mg/kg; design: dose 500 mg/kg; conditions: dog, in vivo
[2] = Pharmacokinetic parameter Cmax has been determined in fed Beagle dogs at a dose of 500 mg/kg; design: dose 500 mg/kg; conditions: dog, in vivo
[3] = Pharmacokinetic parameter half-life was determined in fed Beagle dogs after iv administration of 1.5 mg/kg; design: dose 1.5 mg/kg, route intravenous; conditions: dog, in vivo
[4] = Pharmacokinetic parameter volume was determined in fed Beagle dogs after iv administration of 1.5 mg/kg; design: dose 1.5 mg/kg, route intravenous; conditions: dog, in vivo, read-out: Volume
[5] = Bioavailability in fed Beagle dogs at a dose of 500 mg/kg; conditions: dog, in vivo

clearance [1]: 1.4 mL/min/kg
AUC (Canis familiaris): 2150 ng·h/mL
Cmax [2]: 110 ng/mL
half-life [3]: 4.5 h
Vd [4]: 0.5 L/kg
bioavailability [5]: 0.04%
Compound: C[C@@H]1CC[C@@]2(OC1)O[C@H]1C[C@H]3[C@@H]4CC[C@H]5C[C@@H](O[C@@H]6O[C@H](CO)[C@@H](O[C@@H]7O[C@H](CO)[C@@H](O)[C@H](O)[C@H]7O)[C@H](O)[C@H]6O)CC[C@]5(C)[C@H]4C(=O)C[C@]3(C)[C@H]1[C@@H]2C [PAMAQUESIDE]
